# Several values for one entry are separate records, joined by “and”; a condition that tells them apart may be missing. Equal entries are not always repeated.
# Experiments:
# [1] = test system: RAW 264.7 cells; experiment: NO production by RAW 264.7 macrophages (Griess reagent); type: cell-based, mouse; conditions: MOI 100, 24 hours, LPS 1 μg/mL as 100%
# Description: RAW 264.7 cells (KCLB40071), which are mouse macrophages, were purchased from the Korean Cell Line Bank. They were inoculated to DMEM (high-glucose Dulbecco's modified Eagle's medium; GIBCO, Grand Island, NY, USA) containing 10% (v/v) fetal bovine serum (FBS, GIBCO) and 1% (v/v) penicillin-streptomycin (P/S, GIBCO), cultured at 37° C. in a 5% CO2 incubator (Thermo Fisher Scientific, Waltham, MA, USA), and then detached using a cell scraper (SPL, Pocheon, Korea).
# Cell precipitates were harvested by centrifugation at 10,000 rpm for 5 minutes at 4° C. for 5 times. Afterward, they were washed three times with DPBS (Dulbecco's phosphate buffered saline; Welgene, Gyeongsan, Korea). […]
# NO production by RAW 264.7 macrophages was measured using a Griess reagent. […] 100 µL of the culture was added to a 96-well plate and, after adding 100 μL of a Griess reagent A and a Griess reagent B of equal amounts, reaction was conducted for 15 minutes in the dark, and absorbance was measured at 540 nm with a microplate reader. A standard curve for NO production versus absorbance was constructed using a sample of 250 µM NaNO2 diluted 2-fold with DMEM to […], and NO concentration was calculated from the measured absorbance value.
# [2] = Bile resistance in artificial bile; type: physicochemical; conditions: 0.3% oxgall, 37° C., 24 hours
# Description: Artificial bile was prepared by adding 3% of a 10% Bacto oxgall (Becton, Dickinson and Company) solution filtered through a 0.22-μm membrane to sterilized MRS broth to give a final oxgall concentration of 0.3%. […] 1 mL of the sample was taken, diluted decimally with 9 mL of saline, smeared on LAB Petrifilm, and incubated at 37° C. for 1-2 days to determine the number of live bacteria (Table 13). Bile resistance was calculated using the following equation. A sample incubated in MRS broth without addition of oxgall was used as a control group.
# [3] = test system: Caco-2 cells; experiment: Ability of intestinal adherence; type: cell-based, human; conditions: MOI 200, 2 hours, listed as LGG
# Description: Caco-2 cells (human colorectal adenocarcinoma cells, HTB-37™), which are enterocyte-like cells, purchased from the ATCC were cultured in DMEM medium supplemented with 10% (v/v) FBS (Cornig) and 1% (v/v) P/S at 37° C. under 5% CO2 in an incubator (Thermo Fisher Scientific, Waltham, MA, USA). 0.25% trypsin-EDTA (GIBCO) was used to detach the cells from a culture flask.
# 500 μL of the Caco-2 cells were seeded in a 24-well plate at a density of 5×10^5 cells/well and cultured for 3 days at 37° C. and 5% CO2. The 24-well plate in which the Caco-2 cells were cultured was washed twice with 500 μL of DMEM medium supplemented with 10% FBS. After treating with Lactobacilli at a concentration of MOI 200, the cells were incubated at 37° C. and 5% CO2 for 2 hours. After the incubation, each well was washed four times with 500 μL of DPBS to remove the unattached strain. 200 μL of 0.25% trypsin-EDTA was dispensed into each well and incubated for 5 minutes at 37° C. and 5% CO2. The detached Caco-2 cells and strain were collected in a 1.5-mL tube together with […] of DPBS and centrifuged at 13,000 rpm for 1 minute to harvest a cell pellet, which was washed twice with 1 mL of DPBS. […] After decimal dilution, followed by smearing on Petrifilm and incubation at 37° C. for 24 hours, the number of live bacteria was determined. The ability of intestinal adhesion was calculated by the following equation.
# [4] = Acid resistance in artificial gastric fluid; type: physicochemical; conditions: pH 2.5, 2 h
# Description: Artificial gastric fluid was prepared by adjusting the pH of 100 mM glycine-HCl buffer to 2.5. After inoculating Lactobacillus seed culture incubated at 37° C. for 20 hours to 1% (v/v) in 4 mL of MRS broth, the culture was incubated at 37° C. for 16 hours. The culture was centrifuged at 13000 rpm for 1 minute and the obtained cell precipitate was washed twice with 0.88% (w/v) NaCl (sterile physiological saline). The washed pellet was resuspended in 4 mL of the artificial gastric fluid and incubated at 37° C. After 2 hours of incubation, 1 mL of the sample was taken and centrifuged at 13000 rpm for 1 minute to obtain a cell pellet, which was washed three times with sterile physiological saline and resuspended in 1 mL of sterile physiological saline. After decimally diluting with 9 mL saline, followed by smearing on LAB Petrifilm, the sample was incubated at 37° C. for 1-2 days and the live bacteria were counted (Table 12). Acid resistance was calculated using the following equation. The sample at 0 hour of incubation was used as a control group. [formula]
# [5] = Number of live bacteria and pH of coconut fermented milk; conditions: coconut milk fermented at 37° C. for 16 hours; listed as LGG
# Description: Then, cells were harvested by centrifuging the Lactobacillus culture (13,000 rpm, 1 minute, 4° C.). The cell precipitate was washed 3 times with 0.85% (w/v) NaCl (sterile physiological saline) and then suspended in 1 mL of sterile physiological saline (The concentration of the suspension was 1×10^8 CFU/mL). (2) 1% (v/v) of the suspended strain was inoculated to 3 mL of coconut milk with a solid content of 8 wt %, and coconut fermented milk was prepared by fermenting at 37° C. for 16 hours. After measuring the pH of the coconut fermented milk prepared in Example 11-1, it was decimally diluted with sterile physiological saline and the number of live bacteria was counted on a […] lactic acid bacteria count plate (3M Company, St. Paul, MN, USA) after culturing for 1 to 2 days.
# [6] = Pancreatic juice resistance in artificial pancreatic juice; type: physicochemical; conditions: 0.5% pancreatin, listed as LGG
# Description: Artificial pancreatic juice was prepared by adding 5% of a 10% pancreatin solution (0.85% NaCl, pH 8.0) filtered through a 0.22-μm membrane to sterilized MRS broth to a final pancreatin concentration of 0.5%. A Lactobacillus seed culture obtained by incubating at 37° C. for 20 hours after inoculation to MRS broth was added to 5 mL of the artificial pancreatic juice to 1% (v/v) and incubated at 37° C. […] Pancreatic juice resistance was calculated using the following equation. A sample at 0 hour of incubation was used as a control group. [formula]
# [7] = DPPH radical scavenging assay; type: biochemical; conditions: culture supernatant; relative to 2 mM ascorbic acid
# Description: Louis, MO, USA) radical scavenging assay. […] 0.1 mM DPPH diluted in methanol was used in the experiment. […] The reaction mixture was centrifuged at 13,000 rpm for 1 minute. 200 μL of the supernatant was dispensed into a 96-well plate, and absorbance was measured at 517 nm using a microplate reader (Epoch microplate reader, Biotek Instruments, Inc., Winooski, VT, USA). DPPH radical scavenging activity was calculated using the following equation and expressed as a relative value to the DPPH radical scavenging activity of the positive control group, 2 mM ascorbic acid. DPPH Radical Scavenging Activity (%)=(1-(Absorbance of Sample/Absorbance of Control Group))×100
substance,measurement,setting,value
Lactobacillus rhamnosus GG,NO production (% of positive control group),[1],18.5 ± 3.2%
same,NO production (% of positive control group),[1]; listed as LGG,18.47%
same,Bile resistance (%),[2],63.6 ± 9.3%
same,Ability of intestinal adherence (%),[3],75.5% and 75.5 ± 9.3%
same,Acid resistance (%) Average,[4],83.3%
same,Acid resistance (%) Average,[4]; listed as LGG,83.3 ± 2.3%
same,Acid resistance (%),"[4]; single replicate, listed as LGG",81.2% and 85.8% and 83.0%
same,pH,[5],3.57 and 3.57 ± 0.06
same,live bacteria 0 h (CFU/mL),[6]; 0 h (control),1.30 × 10^9 CFU/mL and 1.73 × 10^9 CFU/mL and 1.12 × 10^9 CFU/mL
same,live bacteria 2 h (CFU/mL),"[6]; 37° C., 2 h",3.14 × 10^9 CFU/mL and 3.87 × 10^9 CFU/mL and 2.74 × 10^9 CFU/mL
same,Pancreatic juice resistance (%) Average,[6]; average,104.1% and 104.1 ± 0.3%
same,Pancreatic juice resistance (%),[6]; single replicate,104.2% and 103.8% and 104.3%
same,DPPH radical scavenging activity (%),[7],97.2%
